Measured values as given in publication PMC8536414, “The LC-MS/MS-Based Measurement of Isopimaric Acid in Rat Plasma and Application of Pharmacokinetics” (BioMed Research International, 2021).
Where two headings read alike, the source gives them in different places.

How the values were obtained:
[1] = Pharmacokinetic study of IPA in rats after i.v. or oral administration (LC-MS/MS of plasma, noncompartmental analysis); type: in vivo, Sprague-Dawley rats; details: for AUC(0-inf) / MRT / half-life / AUC(0-t) / bioavailability / CL/F / Tmax / T max1: rat; for AUC(0-t): read-out: AUC(0~24); for bioavailability: oral, read-out: absolute bioavailability; for Tmax: read-out: T max 2; for C max1 / C max2: rat plasma; for C max1: n = 5
Experimental: Male Sprague-Dawley rats (220-250 g) from Shanghai Slac Laboratory Animal Co., Ltd. (Shanghai, China) (2018(hu)-08-0013) were housed in a climate-controlled facility (22 ± 2°C, 46 ± 20% relative humidity, 12 h light/dark cycle) with unlimited food and water access. After a 7-day acclimatization period, 20 rats were randomly assigned to undergo the administration of IPA via p.o. administration (50, 100, or 200 mg/kg) or via i.v. injection (5 mg/kg) for pharmacokinetic analyses. All animal studies received approval from the Animal Ethics Committee of the Naval Military Medical University. After developing and validating the above LC-MS/MS approach, it was employed to assess the pharmacokinetics of IPA following its intravenous or oral administration to rats as per the approved protocols discussed above. Briefly, after acclimatization, rats were fasted for 12 h and then randomized to undergo treatment with a 5 mg/kg i.v. dose of IPA or with oral IPA doses of 50, 100, or 200 mg/kg (n = 5/group). All IPA solutions were prepared in physiological saline and thoroughly mixed with CMC-Na. Blood samples (~0.4 mL) from these rats were collected in heparinized tubes at 0, 0.083, 0.167, 0.25, 0.5, 0.75, 1, 2, 3, 4, 6, 8, and 12 h following i.v. injection or at 0.167, 0.333, 0.5, 0.75, 1,1.5, 2, 4, 6, 8, 12, and 24 h following oral administration. Blood samples were spun for 5 min at 1,500 × g, after which plasma was collected and stored at -20°C prior to analysis. Plasma IPA concentrations were determined using the calibration curve established above based on peak area ratios from individual injection samples. The mean residence time (MRT0-t), area under the blood concentration-time curve (AUC0-∞, AUC0-t), body clearance (CL/F), and elimination half-life (T1/2) were quantified with the DAS 3.2.6 program (Chinese Pharmacology Society) via a noncompartmental approach. Concentration-time curves were used to establish maximum concentration (Cmax) and time to maximum concentration (Tmax) values. Data are given as means ± standard deviation (S.D.). Absolute bioavailability (F %) was determined as follows: F% = AUC0 − ∞(p.o.) dose (i.v.)/AUC0 − ∞(i.v.) dose (p.o.) × 100%.

[2] = Stability of IPA in rat plasma QC samples under storage conditions; type: in vitro ADME; details: for stability in rat plasma (in words): three QC concentrations; for Postpreparative, Measured: processed plasma sample; for Postpreparative, Measured / Long-term, Measured / Short-term, Measured / Three freeze-thaw, Measured: n = 5; for Long-term, Measured / Short-term, Measured / Three freeze-thaw, Measured: rat plasma
Experimental: IPA stability was examined by evaluating five replicate samples at the three QC concentration levels in a range of storage conditions. […] Processed sample stability was measured by incubating them for 24 h in the room temperature autosampler. In addition, long-term stability was measured following a 30-day storage period at -20°C, and freeze-thaw stability was measured by cycling samples from -20°C to 20°C three times. When the assay values associated with these samples were within a ±15% deviation from the nominal value, samples were considered to be stable.

[3] = male, Sprague-Dawley, plasma, iv, i.v. 5 mg/kg
[4] = male, Sprague-Dawley, plasma, po, p.o. 50 mg/kg
[5] = male, Sprague-Dawley, plasma, po, p.o. 100 mg/kg
[6] = male, Sprague-Dawley, plasma, po, p.o. 200 mg/kg

`C=C[C@@]1(C)CC[C@H]2C(=CC[C@@H]3[C@]2(C)CCC[C@@]3(C)C(=O)O)C1` [IPA, isopimaric acid] showed an AUC(0-inf) [1, 3] of 818 ± 66.2 ng·h/mL, an MRT [1, 3] of 1.4 ± 0.4 h and a half-life [1, 3] of 6.6 ± 5.9 h. The AUC(0-t) [1, 3] was 745 ± 140 ng·h/mL, the bioavailability ([1]; male, Sprague-Dawley, plasma, p.o. 50 mg/kg vs i.v. 5 mg/kg) was 11.9% and the bioavailability ([1]; male, Sprague-Dawley, plasma, p.o. 100 mg/kg vs i.v. 5 mg/kg) was 17.5%. The AUC(0-inf) [1, 4] was 923 ± 614 ng·h/mL, the MRT [1, 4] was 9.3 ± 1.3 h and the half-life [1, 4] was 10.4 ± 9.8 h. For the same compound, the AUC(0-t) [1, 4] was 887 ± 636 ng·h/mL, the CL/F ([1]; male, Sprague-Dawley, plasma, po, p.o. 50 mg/kg, read-out: CL/F (converted)) was 1170 mL/min/kg and the Tmax [1, 4] was 6.4 ± 2.6 h. It also gave an AUC(0-inf) [1, 5] of 2640 ± 1640 ng·h/mL, an MRT [1, 5] of 7.6 ± 1.3 h and a half-life [1, 5] of 5.5 ± 2.3 h. The AUC(0-t) [1, 5] was 2600 ± 1630 ng·h/mL, the CL/F ([1]; male, Sprague-Dawley, plasma, po, p.o. 100 mg/kg, read-out: CL/F (converted)) was 983 mL/min/kg and the Tmax [1, 5] was 6 ± 1.4 h. The AUC(0-inf) [1, 6] was 3190 ± 1720 ng·h/mL, the MRT [1, 6] was 7.9 ± 0.5 h and the half-life [1, 6] was 3.6 ± 1 h. It also gave an AUC(0-t) [1, 6] of 3180 ± 1720 ng·h/mL, a CL/F ([1]; male, Sprague-Dawley, plasma, po, p.o. 200 mg/kg, read-out: CL/F (converted)) of 1330 mL/min/kg and a Tmax [1, 6] of 8.8 ± 1.1 h. The “C max1” value ([1]; i.v. 5 mg/kg) was 1740.1 ± 456.0 ng/mL, the “C max2” value ([1]; p.o. 50 mg/kg) was 61.6 ± 46.2 ng/mL and the “C max1” value ([1]; p.o. 50 mg/kg) was 83.7 ± 32.9 ng/mL. For the same compound, the “C max2” value ([1]; p.o. 100 mg/kg) was 284.9 ± 183.4 ng/mL, the “C max1” value ([1]; p.o. 100 mg/kg) was 296.4 ± 75.1 ng/mL and the “C max2” value ([1]; p.o. 200 mg/kg) was 286.9 ± 217.2 ng/mL. The “C max1” value ([1]; p.o. 200 mg/kg) was 246.23 ± 94.4 ng/mL, the CL/F ([1]; i.v. 5 mg/kg) was 6.1 ± 0.5 L/h and the “T max1” value ([1]; i.v. 5 mg/kg) was 0 ± 0 h. The “T max1” value ([1]; p.o. 50 mg/kg) was 0.9 ± 0.1 h, the “T max1” value ([1]; p.o. 100 mg/kg) was 0.6 ± 0.3 h and the “T max1” value ([1]; p.o. 200 mg/kg) was 0.65 ± 0.1 h. The “stability in rat plasma (in words)” value ([2]; 3 rounds of freeze-thawing) was “remained stable”, the “stability in rat plasma (in words)” value ([2]; 3 h room temperature incubation) was “remained stable” and the “stability in rat plasma (in words)” value ([2]; 30 days of storage at -20°C) was “remained stable”. The “Postpreparative, Measured” value ([2]; spiked 10 ng·mL^−1, 24 h room temperature autosampler) was 9.56 ± 0.88 ng/mL, the “Postpreparative, Measured” value ([2]; spiked 400 ng·mL^−1, 24 h room temperature autosampler) was 371.2 ± 1.44 ng/mL and the “Postpreparative, Measured” value ([2]; spiked 2000 ng·mL^−1, 24 h room temperature autosampler) was 2012 ± 0.12 ng/mL. The “Long-term, Measured” value ([2]; spiked 10 ng·mL^−1, 30 days at -20°C) was 10.79 ± 1.46 ng/mL, the “Short-term, Measured” value ([2]; spiked 10 ng·mL^−1, room temperature) was 9.65 ± 0.07 ng/mL and the “Three freeze-thaw, Measured” value ([2]; spiked 10 ng·mL^−1, three cycles -20°C to 20°C) was 10.27 ± 0.56 ng/mL. The “Long-term, Measured” value ([2]; spiked 400 ng·mL^−1, 30 days at -20°C) was 363.5 ± 1.82 ng/mL, the “Short-term, Measured” value ([2]; spiked 400 ng·mL^−1, room temperature) was 407.0 ± 0.34 ng/mL and the “Three freeze-thaw, Measured” value ([2]; spiked 400 ng·mL^−1, three cycles -20°C to 20°C) was 421.8 ± 1.08 ng/mL. The “Long-term, Measured” value ([2]; spiked 2000 ng·mL^−1, 30 days at -20°C) was 1908.3 ± 0.92 ng/mL, the “Short-term, Measured” value ([2]; spiked 2000 ng·mL^−1, room temperature) was 1840 ± 1.6 ng/mL and the “Three freeze-thaw, Measured” value ([2]; spiked 2000 ng·mL^−1, three cycles -20°C to 20°C) was 1967 ± 0.34 ng/mL. The “postpreparation stability (in words)” value ([2]; room temperature for 24 h in the autosampler) was “remained stable”.
